Assay results reported in patent US12318399B2 (priority 2022, dated 2025).
Where two headings read alike, the source gives them in different places.

Key:
ovarian cancer organoids = experiment: Patient-derived ovarian cancer organoid cell viability; assay type: cell-based, human; settings: for cell viability: chemo sensitive and chemo resistant organoids, FIGS. 11A-11D
Procedure: (§1) Development of patient derived organoids: The patient derived organoids were created as follows: the patient's tissue sample was collected after surgery and bathed in Hank's Balanced Salt Solution (HBSS) (Hyclone, SH30031.02) with 1% Pencillin/Streptomycin (P/S) (Life Technologies, 15070-063) on ice. Then the sample was washed three times with Dulbecco's phosphate-buffered saline (DPBS) and 1% P/S on a shaker (70 rpm) for 15 minutes each. The tissue was then transferred into a presterilized cell-culture hood to mince it finely with a sterile blade. All minced parts were then digested in an enzyme named Accumax (Innovative Cell Technologies Inc., AM105-500) for 2.5 hours at room temperature. After 2.5-hour incubation, the whole digested tissue mince was transferred in another enzyme, TrypLE express, (Gibco, 12604-021) for another 45 minutes in a 37° C. water bath. During this time the solution was continuously agitated in every 5 minutes interval. After 45 minutes of incubation, the solutions were passed through 70 μm filter on a 50 mL falcon tube. The filter was removed, and the flowthrough with the cells was collected in 5% FBS AD+++ medium (comprising 1% TS, 2% B27, 1% N2, 25% WRN, hegf 50 ng/ml, hfgf 10-100 ng/ml, Nicotinamide 1 mM, N-acetyl cysteine 1.25 mM, Primocin 0.2%, Estrogen 2 nm, A8301 0.5 μM, and Y27632). This cell suspension was centrifuged at 1000 rpm for 5 minutes at room temperature to get the cell pellet for counting. Upon checking under hemocytometer cell number was calculated and processed for organoid culture. After checking under a microscope if we found RBC contamination in the final cell suspension, then we used Red Blood Cell Lysis Buffer (Roche Diagnostics, 11814389001) to get rid of the excess RBC. Human patient cells from endometrial cancer were grown and maintained in a humidified chamber at 37° C. with 5% CO2.
For the Ascites samples, we centrifuged the ascites fluid at 1000 rpm for 10 minutes at room temperature to get the cell suspension. The cell suspension was then treated with Red Blood Cell Lysis Buffer (Roche Diagnostics, 11814389001) to remove the RBC from the final cell suspension. Once samples were created, they were ready for testing, which included treating the organoids with cannabis extract. Additional cells were cultured in the same manner as above.
(§2) To culture patient-derived organoids, 2-3×10^3 cells were plated in a prewarmed (37° C.) 96-well plate in […] of Matrigel (5% FBS AD+++ medium) per well. Individual patient cell organoid was cultured separately in different plates. Individual patient cells were handled separately to reduce the chance of cross-contamination. After mixing cells with Matrigel, […] droplets were placed in wells and put in a 37° C. incubator with 5% CO2 for 30 minutes. Upon solidification of the Matrigel droplet with cells inside, the plate was placed inside a sterile hood and immersed the Matrigel droplet in 200 μL of organoid growth media. Cells were allowed to grow into mature organoids for 14 days. […] All treatments were done in triplicate, including vehicle-only controls (Dimethyl sulfoxide in culture medium at the highest concentration used for drug treatments).
(§3) Note: IC50 is the 50% inhibitory concentration which is conventionally used to determine drug potency with cell-based cytotoxicity tests. Similarly, all of the antioxidants were tested under the same protocol.
To assess the cell viability in organoids after treatments, CellTiter-Glo® Luminescent Assay (Promega #G7572) was used. In brief, on day 14 of organoid culture, the matrigel droplet in each well with organoid inside was immersed in 100 μL of fresh growth media and 100 μL of CellTiter-Glo® reagent following the manufacturer's guideline. Blank wells containing only media and CellTiter-Glo® reagent (no cells) were also included in each plate. […]

[1] = tested on: patient derived endometrial cancer cells; experiment: Patient-derived xenograft (PDX) mouse model, tumor volume; assay type: in vivo; settings: monotherapy 30 mg/kg intraperitoneal, by day 14 and at day 21
Procedure: Human patient cells from endometrial cancer were injected subcutaneously into female NOD/SCID gamma mice after resuspending in 100 μL solution. […] Tumor size measured before treatment, followed by twice a week measurement. All treatment group mice were kept alive for up to 10 weeks after drug injection or until the tumor volume grows bigger than 2,500 mm^3.
Tumor size was measured along with body weight at the time of tissue collection. All tumor tissues were removed carefully from the euthanized mouse body. Tumor tissue samples were kept for histology, proteomics, genomics, and other downstream processing. All downstream processing was completed following NCI Patient-Derived Models Repository SOPs. Tumor volume graph will be plotted using GraphPad Prism 9.
The mouse studies utilized intraperitoneal dosing of various formulations of cannabis extracts comprising a known quantity of CBD.

[2] = tested on: endometrial cancer organoids; experiment: Patient-derived endometrial cancer organoid cell viability (CellTiter-Glo); assay type: cell-based, human
Procedure: as §1, §2, §3
To assess the cell viability in organoids after treatments, CellTiter-Glo® Luminescent Assay (Promega #G7572) was used. In brief, on day 14 of organoid culture, the matrigel droplet in each well with organoid inside was immersed in 100 μL of fresh growth media and 100 μL of CellTiter-Glo® reagent following the manufacturer's guideline. Blank wells containing only media and CellTiter-Glo® reagent (no cells) were also included in each plate. Then the plates were put on a shaker at 110 RPM at room temperature for […] minutes to induce cell lysis, followed by 25 minutes at room temperature to stabilize the luminescent signal. Each step after adding the CellTiter-Glo® reagent was performed in the dark. Luminescence was measured on a FLUOstar OPTIMA plate reader (BMG Lab technologies, Offenburg, Germany). Analysis was performed by normalizing treatment values to the vehicle control and plotting them as a percentage of the vehicle control.

[3] = cited from earlier work
[4] = tested on: chemoresistant EC, which had metastasized; experiment: Testing within human patients; assay type: in vivo

**Q.** For `C=C(C)[C@@H]1CCC(C)=C[C@H]1c1c(O)cc(CCCCC)cc1O` [CBD isolate, cannabidiol], which cell viability (ovarian cancer organoids) is on record?
**A.** dramatically reduce cell viability

**Q.** And the “efficacy at killing the organoids compared with native pH” value (ovarian cancer organoids; pH 8)?
**A.** virtually no change

**Q.** What about the tumor volumes [1] of the same molecule?
**A.** decreased

**Q.** And the “response of patient derived organoids” value ([2]; 7 or 10 μg/mL, FIGS. 4B and 4C)?
**A.** virtually all patients respond

**Q.** And the eradication ([2]; IC50 of cannabis extract combined with the higher doses of carboplatin)?
**A.** ~100%

**Q.** Which results are given for `C=C(C)[C@@H]1CCC(C)=C[C@H]1c1c(O)cc(CCCCC)cc1O` [CBD, cannabidiol]?
**A.** increase of Cmax ([3]; coadministration with high fat food): up to 5 fold; Tmax ([3]; delivery via the nasal mucosa): approximately 10 minutes; maximum plasma concentration (time) ([3]; oral-mucosal or sublingual delivery): 1.6 h; maximum plasma concentration (time) ([3]; orally delivered): 2.5 to 5 h; efficacy in human patients [4]: effective in reducing chemoresistant EC

**Q.** What does the source list for `C=C(C)[C@@H]1CCC(C)=C[C@H]1c1c(O)cc(CCCCC)c(C(=O)O)c1O` [CBDA, cannabidiolic acid]?
**A.** cell viability (ovarian cancer organoids): dramatically reduce cell viability; tumor volumes [1]: decreased; reduction in organoid formation in all patients ([2]; dosing up to 50 μg/mL): ~100%
